Data set [1] can be described thus: Solubility and solution stability of CCG-211790. The data set is classed as physicochemical. The note with it: PEG/PG solution, aqueous with cosolvent or surfactant or cyclodextrin; ethanol (10%), propylene glycol (25%), PEG 400 (35%) and water (30%).
The conditions of data set [2]: cited from earlier work.
Data set [3] has as its system methicillin-resistant Staphylococcus aureus (MRSA). Also on record: method as in PMID 33556134. The note with it: cited from earlier work.
A short description of data set [4]: In vitro dissolution in 0.5% SDS solution. It is filed as physicochemical. The note with it: 37 °C, 75 rpm. The procedure:
The concentrations of CCG-211790 nanosuspensions were measured using an Agilent series 1100 HPLC system (Agilent Technologies, Santa Clara, CA, USA) equipped with a diode array detector. Sample separation was carried out with a Kinetex C18 column (75 mm × 3 mm, particle size 2.6 µm, Phenomenex, Torrance, CA, USA). The mobile phase was acetonitrile-water (50:50, v/v), flow rate was set to 0.5 mL/min, and column temperature to 35 °C. The injection volume was 30 µL. The absorption wavelength was set at 255 nm. CCG-211790 nanoparticles were dissolved in the mobile phase for HPLC analysis. Due to the fact that the analyte concentration was high and no other matrix was present in the sample, the HPLC method performed very well with excellent calibration linearity, reproducibility, and spike recovery. During sample analysis, ongoing quality controls were performed including a reagent blank, a duplicate sample, and spike recovery samples for every 10 samples analyzed.
The in vitro dissolution profiles of CCG-211790 bulk powder, NanoA and NanoB suspensions were examined. SDS is one of the most frequently used artificial surfactants in dissolution test to establish sink conditions for water-insoluble drugs. Therefore, a SDS solution (0.5% w/v in water) was used as the dissolution medium in this study. In each dissolution test, suspension or powder equivalent to 4 mg of CCG-211790 were directly dispersed in 500 mL dissolution medium under magnetic stirring at 75 rpm. The temperature of the dissolution medium was maintained at 37 ± 1 °C in a water bath. Sample aliquots (3 mL) were withdrawn at predetermined time points (5, 10, 20, 30, 45, and 60 min) and immediately replaced with 3 mL of fresh dissolution medium to readjust the volume to 500 mL. Undissolved particles were separated by centrifugation at 10,000× g for 5 min and the supernatant was collected for HPLC analysis. All experiments were run in triplicate.

The text below walks through data of paper PMC8540953, “Preparation and Pharmacokinetic Characterization of an Anti-Virulence Compound Nanosuspensions” (Pharmaceutics, 2021).

What is called solubility is the concentration that dissolves in the medium under given conditions. Read a high solubility as much dissolved substance. In data set [1], `COc1ccc2c(c1)-c1nc(SCC(F)(F)F)n(C)c(=O)c1C(C)(C)C2` [CCG-211790, 9-methoxy-3,5,5-trimethyl-2-((2,2,2-trifluoroethyl)thio)-5,6-dihydrobenzo[h]quinazolin-4(3H)-one] had a solubility of no more than 1000 µg/mL. For the same compound, in data set [2], the aqueous solubility result is “less than 50 ng/mL” and the “solubility in coconut oil” value is “up to 37 mg/mL”. The “biofilm formation of MRSA” value in data set [3] is “inhibited”.

As to `COc1ccc2c(c1)-c1nc(SCC(F)(F)F)n(C)c(=O)c1C(C)(C)C2` [CCG-211790 bulk powder], the drug release in data set [4] (at 5 min) is reported as 19.6%; in data set [4] (at 45 min), 63.4%; in data set [4] (at 60 min), 64.3%.
